Several values for one entry are separate records, joined by “and”; a condition that tells them apart may be missing. Equal values may be shown once.
How the values were obtained:
[1] = target: T1, human serum albumin (HSA) (Homo sapiens, UniProt P02768); assay: Albumin-mediated size exclusion chromatography (AMSEC); format: in vitro ADME; details: for tR,AMSEC (retention time in AMSEC run): 177Lu-labeled ligand, mobile phase 700 µM HSA in PBS pH 7.4, Superdex 75 Increase, corrected for detector offset, normalized to column 1; for Retention factor k: fraction of time the radioligand is complexed to HSA during the AMSEC run, Equation (2); for MWapp,raw (raw apparent molecular weight): from tR,AMSEC by column calibration, 700 µM HSA in PBS pH 7.4; for MWapp,norm. (normalized apparent molecular weight): from tR,norm. by column calibration; for tR,norm. (normalized retention time): normalized with tR,blank, tR,HSA and tR,acetone, Equation (5); for MWapp,raw in percentage of the MWapp,raw of rhPSMA-7.3: rhPSMA-7.3 = 100%
T1 construct: purchased Biowest, Nuaillé, France
T1 sequence (P02768 25-609): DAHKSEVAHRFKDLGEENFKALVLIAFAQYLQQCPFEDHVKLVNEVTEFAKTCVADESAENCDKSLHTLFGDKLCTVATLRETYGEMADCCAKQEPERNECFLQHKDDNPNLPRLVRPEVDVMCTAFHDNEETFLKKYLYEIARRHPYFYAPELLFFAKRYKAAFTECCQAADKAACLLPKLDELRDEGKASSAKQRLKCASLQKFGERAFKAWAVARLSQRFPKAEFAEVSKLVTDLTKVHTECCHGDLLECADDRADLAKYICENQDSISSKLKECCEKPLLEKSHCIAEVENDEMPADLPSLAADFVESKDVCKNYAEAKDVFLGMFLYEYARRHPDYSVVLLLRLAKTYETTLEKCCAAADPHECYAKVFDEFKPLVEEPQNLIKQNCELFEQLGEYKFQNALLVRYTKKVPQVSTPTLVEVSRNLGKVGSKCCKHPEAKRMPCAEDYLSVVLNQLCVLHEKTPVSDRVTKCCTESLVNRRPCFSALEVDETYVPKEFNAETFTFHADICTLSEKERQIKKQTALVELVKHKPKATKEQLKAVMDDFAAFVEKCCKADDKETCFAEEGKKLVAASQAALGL
Method: All size exclusion chromatographic (SEC) experiments were carried out using the above-mentioned HPLC system equipped with a Superdex 75 Increase 10/300 GL gel filtration size exclusion column (fractionation range 70–3 kDa, GE Healthcare, Uppsala, Sweden). Eluents at room temperature, a constant flow rate of 0.8 mL/min, and an acquisition time of 35 min were generally applied. The column was calibrated as recommended by the manufacturer using a commercially available set of proteins (Gel Filtration LMW Calibration Kit, GE Healthcare, Buckinghamshire, UK). Retention times of calibration proteins and calculated calibration parameters are given in the Supplementary Materials (Table S3). UV signal detection occurred at 280 nm.
All retention times of radio signals were corrected for the offset between the UV-vis detector and radio-detector (Δt = 0.084 min). Throughout the development of the AMSEC method, three gel filtration columns of the same type were used for experiments (most data were acquired using column 1). As calculations were based on absolute empirical retention times that inherently differed slightly from column to column, all retention times determined on column 2 and column 3 were mathematically converted to an equivalent retention time on column 1 using the columns’ calibration parameters. A detailed description of these calculations is provided in the Supplementary Materials.
All numerical retention times explicitly given in running text or tables and plotted in diagrams are already corrected for the offset between UV-vis and radio-detector and, if initially determined on columns 2 or 3, converted to the equivalent retention time on column 1 (for detailed information, see Equations (S1) and (S2) and Table S1 in the Supplementary Materials).
AMSEC runs were executed with a solution of HSA (Biowest, Nuaillé, France) in PBS (pH 7.4) at physiological concentration (700 µM) as a mobile phase. Upon injection of approximately 1.0 MBq (5–10 µL) of a radioligand, the elution profile was monitored via radioactivity detection, and the retention times of observed radiopeaks (tR,AMSEC) were determined via semi-automated peak integration. By means of calibration, retention times were translated into a ligand-specific raw apparent molecular weight (MWapp,raw) as a parameter to assess the extent of HSA binding (for calculation, see Equation (S6) in the Supplementary Materials). rhPSMA-7.3 served as an internal standard during AMSEC studies and was co-evaluated whenever new data were collected to assess the reproducibility of the method (n = 14).
For reference purposes, conventional SEC runs of HSA (100 µL, 3 mg/mL) and acetone (100 µL, 2% in PBS pH 7.4) with PBS (pH 7.4) as a mobile phase were executed. The retention time of HSA (tR,HSA) corresponded to the maximal MWapp,raw, theoretically observable in AMSEC runs in the case of continuous binding of a radioligand to HSA (equivalent to 100% HSA binding). The retention time of acetone (tR,acetone) served as a reference for a ligand with no interaction with HSA in AMSEC runs (equivalent to 0% HSA binding) and an actual physical molecular weight below the column fractionation range (this was the case for all investigated radioligands).
(§1) MWapp,raw values determined as described in Section 3.3.1. were normalized in order to account for ligand-specific influences on experimentally determined retention times and to establish quantitative comparability of the obtained MWapp,norm. values. The normalization was based on a SEC run (referred to as blank run) of a radioligand executed in analogy to the AMSEC run but using PBS (pH 7.4) without HSA as a mobile phase. The determined retention time tR,blank, together with the retention time tR,AMSEC from the AMSEC run, tR,HSA, and tR,acetone determined in Section 3.3.1, were used to calculate a normalized retention time tR,norm. for every radioligand (for formulae and details on the calculation, see Section 2. Results and Discussion). […]

[2] = Blank SEC run of radioligand (PBS pH 7.4 without HSA); format: physicochemical
Method: To validate this hypothesis, blank runs (PBS pH 7.4 as mobile phase) of the radioligands on the SEC column were performed. The resulting retention times were termed tR,blank and represent the ligand-specific retention time that would correspond to 0% HSA binding in the AMSEC experiment. […] We concluded that unspecific electrostatic interactions between the highly negatively charged radioligand and the agarose/dextran-based matrix of the superdex column are present and lead to an elution prior to the expected cut-off volume. Consequently, apart from the radioligand’s binding to HSA in the AMSEC run, the unspecific interactions with the column matrix contribute to the determined MWapp,raw, thus hampering its informative value. […]
as §1, with “The normalization was based on a SEC run (referred to as blank run) of a radioligand executed in analogy to the AMSEC run but using PBS (pH 7.4) without HSA as a mobile phase.” left out

[3] = Calculated glomerular sieving coefficients (GSCcalc) from MWapp,norm.; details: from MWapp,norm. via sigmoidal fit of MW vs GSC of 12 human plasma proteins
Source text: Therefore, when comparing the MWapp,norm. of different radioligands, not only their relative difference but also the absolute values of MWapp,norm. are of importance. […] These GSCcalc determined for all the PSMA radioligands (Table 2, Figure 5) inherently account for the exponential nature of the relationship between their albumin-mediated MWapp,norm. and MW-dependent GF and could, therefore, be a useful parameter to estimate differences in blood clearance by means of GF. The GSC is defined as the ratio of a compound’s concentration in the glomerular filtrate to that in the blood; thus, a GSC of 1 represents unhindered filtration through the capillary membrane in the glomerulus, while a lower GSC corresponds to a restricted filtration and, thus, a prolonged circulatory half-life. […] As an example, a GSCcalc of 0.408 was determined for rhPSMA-7.3, while an almost three-fold smaller GSCcalc of 0.138 was determined for rhPSMA-7.4. […] This would constitute a dramatic physiological effect that, in its extent, could not be predicted only based on subtle differences in molecular structure and other conventionally determined in vitro parameters. We, therefore, believe that the MWapp,norm. and GSCcalc obtained by AMSEC could be important parameters that, already at the preclinical stage of development, could help in the selection of promising therapeutic radioligands with pharmacokinetic profiles suitable for patient application.
A sigmoidal fit of molecular weights (MWs, in kDa) and corresponding glomerular sieving coefficients (GSCs) of 12 human plasma proteins (data taken from Norden et al.) was executed using OriginPro software. A dose-response model based on Equation (6) was applied:(6) GSC=A1+A2−A1/1+10^(LOGx0−MW)·p.
The values of bottom asymptote A1 and top asymptote A2 were set to 4.2∙10^−5 (GSC of IgG, data taken from Norden et al.) and 1 (equaling complete sieving), respectively. Curve fitting gave the center parameter LOGx0 = 19.36833 and the Hill slope p = −0.12108. GSCcalc values were calculated via implementation of fitting parameters and the experimentally determined MWapp,norm. in Equation (6).

[4] = design: method as in PMID 34531260; details: 177Lu-labeled, intrapatient comparison vs PSMA-I&T; cited from earlier work

SMILES | tR,AMSEC (retention time in AMSEC run) [1] | Relative reduction in MWapp,norm. compared to MWapp,raw ([1]; effect of normalization) | Retention factor k [1] | MWapp,raw (raw apparent molecular weight) [1] | MWapp,norm. (normalized apparent molecular weight) [1] | tR,norm. (normalized retention time) [1] | MWapp,raw in percentage of the MWapp,raw of rhPSMA-7.3 [1] | tR,blank (retention time in blank run) ([2]; PBS pH 7.4 without HSA as mobile phase, corresponds to 0% HSA binding) [min] | GSCcalc (calculated glomerular sieving coefficient) [3] | MWapp,norm. higher than that of the stereoisomer ([1]; rhPSMA-7.2 vs rhPSMA-7.1, rhPSMA-10.1 vs rhPSMA-10.2) [%] | mean MWapp,raw ([1]; mean ± SD, n = 14) [kDa] | tumor dose relative to PSMA-I&T [4] [fold] | MW mathematically corresponding to tR,blank ([2]; PBS pH 7.4 without HSA) [kDa]
O=C(O)CC[C@H](NC(=O)N[C@@H](CCCCNC(=O)CCCCCCC(=O)NCCCC[C@@H](NC(=O)[C@@H](Cc1ccccc1)NC(=O)[C@@H](Cc1ccc(O)c(I)c1)NC(=O)CCC(C(=O)O)N1CCN(CC(=O)O)CCN(CC(=O)O)CCN(CC(=O)O)CC1)C(=O)O)C(=O)O)C(=O)O (stereo partly shown) (177Lu complex, metal not drawn) [PSMA-I&T, reference compound] | 20.983 min | around 60% | 0.0013 and 0.001 | 5.4 kDa | 1.9 kDa | 24.792 min | approximately 18% | 20.995 |  |  |  |  | 
CC(C)(C)[Si](F)(c1ccc(C(=O)NC[C@@H](NC(=O)CC[C@H](C(=O)O)N2CCN(CC(=O)[O-])CCN(CC(=O)[O-])CCN(CC(=O)[O-])CC2)C(=O)N[C@H](CCCCNC(=O)CCC(=O)NCCC[C@@H](NC(=O)CC[C@H](NC(=O)N[C@@H](CCC(=O)O)C(=O)O)C(=O)O)C(=O)O)C(=O)O)cc1)C(C)(C)C.[177Lu+3] [rhPSMA-7.1] | 15.240 min |  | 0.613 | 26.5 kDa | 17.1 kDa | 16.824 min |  |  | 0.655 |  |  |  | 
CC(C)(C)[Si](F)(c1ccc(C(=O)NC[C@H](NC(=O)CC[C@H](C(=O)O)N2CCN(CC(=O)[O-])CCN(CC(=O)[O-])CCN(CC(=O)[O-])CC2)C(=O)N[C@H](CCCCNC(=O)CCC(=O)NCCC[C@@H](NC(=O)CC[C@H](NC(=O)N[C@@H](CCC(=O)O)C(=O)O)C(=O)O)C(=O)O)C(=O)O)cc1)C(C)(C)C.[177Lu+3] [rhPSMA-7.2] | 14.564 min |  | 0.680 | 32.0 kDa | 21.7 kDa | 15.962 min |  |  | 0.344 | 27 |  |  | 
CC(C)(C)[Si](F)(c1ccc(C(=O)NC[C@@H](NC(=O)CC[C@@H](C(=O)O)N2CCN(CC(=O)[O-])CCN(CC(=O)[O-])CCN(CC(=O)[O-])CC2)C(=O)N[C@H](CCCCNC(=O)CCC(=O)NCCC[C@@H](NC(=O)CC[C@H](NC(=O)N[C@@H](CCC(=O)O)C(=O)O)C(=O)O)C(=O)O)C(=O)O)cc1)C(C)(C)C.[177Lu+3] [rhPSMA-7.3] | 14.722 min and 14.722 ^3 min |  | 0.667 ^1 | 30.6 ^3 kDa | 20.7 kDa and 20.7 ^1 kDa | 16.125 ^1 min |  |  | 0.408 |  | 30.6 | 2.4 | 6.0
CC(C)(C)[Si](F)(c1ccc(C(=O)NC[C@H](NC(=O)CC[C@@H](C(=O)O)N2CCN(CC(=O)[O-])CCN(CC(=O)[O-])CCN(CC(=O)[O-])CC2)C(=O)N[C@H](CCCCNC(=O)CCC(=O)NCCC[C@@H](NC(=O)CC[C@H](NC(=O)N[C@@H](CCC(=O)O)C(=O)O)C(=O)O)C(=O)O)C(=O)O)cc1)C(C)(C)C.[177Lu+3] [rhPSMA-7.4] | 14.143 min |  | 0.729 | 36.0 kDa | 26.0 kDa | 15.316 min | ~120% |  | 0.138 |  |  |  | 
CC(C)(C)[Si](F)(c1ccc(C(=O)NC[C@H](NC(=O)CN2CCN(CC(=O)[O-])CCN(CC(=O)[O-])CCN(CC(=O)[O-])CC2)C(=O)N[C@H](CCCCNC(=O)CCC(=O)NCCC[C@@H](NC(=O)CC[C@H](NC(=O)N[C@@H](CCC(=O)O)C(=O)O)C(=O)O)C(=O)O)C(=O)O)cc1)C(C)(C)C.[177Lu+3] [rhPSMA-10.2] | 15.908 min |  | 0.543 | 22.0 kDa | 13.2 kDa | 17.736 min |  |  | 0.846 |  |  |  | 

From PMC9500755, “Albumin-Mediated Size Exclusion Chromatography: The Apparent Molecular Weight of PSMA Radioligands as Novel Parameter to Estimate Their Blood Clearance Kinetics” (Pharmaceuticals, 2022)
